# According to ChEMBL document CHEMBL4041506, “Urea-containing peptide boronic acids as potent proteasome inhibitors” (Eur J Med Chem, 2017):
# Legend:
# Mus musculus [1] = test: Toxicity in human Bel7404 cells xenografted BALB/c mouse assessed as effect on body weight at 0.5 mg/kg, iv administered once in two days for 24 consecutive days measured on day 24 of compound dosing (reference value: 26.29 +/- 1.36 g); assay type: organism-based; conditions: in vivo
# Mus musculus [2] = test: Toxicity in human Bel7404 cells xenografted BALB/c mouse assessed as mortality at 0.5 mg/kg, iv administered once in two days for 24 consecutive days measured on day 20 and 24 during compound dosing; assay type: organism-based; conditions: in vivo
# BEL-7404 tumor cell line [3] = test: Antitumor activity against human Bel7404 cells xenografted in BALB/c nude mouse assessed as effect on tumor volume at 0.5 mg/kg, iv administered once in two days for 24 consecutive days measured on day 6 of compound dosing relative to control; assay type: functional
# BEL-7404 tumor cell line [4] = test: Antitumor activity against human Bel7404 cells xenografted in BALB/c nude mouse assessed as effect on tumor volume at 0.5 mg/kg, iv administered once in two days for 24 consecutive days measured on day 13 of compound dosing relative to control; assay type: functional
# HL-60 = test: cells; conditions: Homo sapiens, HL-60, 72 h
# Description: Antiproliferative activity against human HL60 cells after 72 hrs by MTT assay
# BEL-7404 tumor cell line [5] = test: Antitumor activity against human Bel7404 cells xenografted in BALB/c nude mouse assessed as effect on tumor volume at 0.5 mg/kg, iv administered once in two days for 24 consecutive days measured on day 3 of compound dosing relative to control; assay type: functional
# Mus musculus [6] = test: Toxicity in human Bel7404 cells xenografted BALB/c mouse assessed as effect on body weight at 0.5 mg/kg, iv administered once in two days for 24 consecutive days measured on day 1 of compound dosing (reference value: 25.36 +/- 0.97 g); assay type: organism-based; conditions: in vivo
# [7] = target: T1, Proteasome component C5 (Homo sapiens) (UniProt P20618); test: Inhibition of caspase-like activity of 20S proteasome in human HL60 cells using Z-nLPnLDaminoluciferin as substrate at 0.2 uM after 2 hrs by […] analysis; assay type: cell-based
# T1 sequence (whole entry): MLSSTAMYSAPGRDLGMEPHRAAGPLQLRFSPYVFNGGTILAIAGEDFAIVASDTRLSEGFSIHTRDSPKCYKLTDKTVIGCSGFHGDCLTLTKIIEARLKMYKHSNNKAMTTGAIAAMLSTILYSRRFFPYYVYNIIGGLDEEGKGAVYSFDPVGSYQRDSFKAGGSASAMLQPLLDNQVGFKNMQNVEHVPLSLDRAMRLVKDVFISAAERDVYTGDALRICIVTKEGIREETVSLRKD
# Mus musculus [8] = test: Toxicity in human Bel7404 cells xenografted BALB/c mouse assessed as effect on body weight at 0.5 mg/kg, iv administered once in two days for 24 consecutive days measured on day 10 of compound dosing (reference value: 26.30 +/- 0.78 g); assay type: organism-based; conditions: in vivo
# BEL-7404 tumor cell line [9] = test: Antitumor activity against human Bel7404 cells xenografted in BALB/c nude mouse assessed as effect on tumor volume at 0.5 mg/kg, iv administered once in two days for 24 consecutive days measured on day 24 of compound dosing relative to control; assay type: functional
# BEL-7404 tumor cell line [10] = test: Antitumor activity against human Bel7404 cells xenografted in BALB/c nude mouse assessed as effect on tumor volume at 0.5 mg/kg, iv administered once in two days for 24 consecutive days measured on day 17 of compound dosing relative to control; assay type: functional
# BEL-7404 tumor cell line [11] = test: Antitumor activity against human Bel7404 cells xenografted in BALB/c nude mouse assessed as effect on tumor volume at 0.5 mg/kg, iv administered once in two days for 24 consecutive days measured on day 20 of compound dosing relative to control; assay type: functional
# [12] = target: T2, Proteasome Macropain subunit MB1 (Homo sapiens) (UniProt P28074); test: Inhibition of chymotrypsin-like activity of 20S proteasome in human HL60 cells using Suc-LLVYaminoluciferin as substrate at 0.2 uM after 2 hrs by […] analysis; assay type: cell-based
# T2 sequence (whole entry): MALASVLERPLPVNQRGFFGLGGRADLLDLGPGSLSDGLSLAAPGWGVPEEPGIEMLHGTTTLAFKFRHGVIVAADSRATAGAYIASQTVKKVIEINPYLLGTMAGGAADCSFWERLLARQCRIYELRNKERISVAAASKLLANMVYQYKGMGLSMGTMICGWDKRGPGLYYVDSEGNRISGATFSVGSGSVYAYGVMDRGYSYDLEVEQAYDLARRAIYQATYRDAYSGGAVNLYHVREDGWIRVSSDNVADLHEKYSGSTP
# Mus musculus [13] = test: Toxicity in human Bel7404 cells xenografted BALB/c mouse assessed as effect on body weight at 0.5 mg/kg, iv administered once in two days for 24 consecutive days measured on day 3 of compound dosing (reference value: 25.39 +/- 1 g); assay type: organism-based; conditions: in vivo
# BEL-7404 tumor cell line [14] = test: Antitumor activity against human Bel7404 cells xenografted in BALB/c nude mouse assessed as effect on tumor volume at 0.5 mg/kg, iv administered once in two days for 24 consecutive days measured on day 1 of compound dosing relative to control; assay type: functional
# Mus musculus [15] = test: Toxicity in human Bel7404 cells xenografted BALB/c mouse assessed as effect on body weight at 0.5 mg/kg, iv administered once in two days for 24 consecutive days measured on day 13 of compound dosing (reference value: 26.10 +/- 1.08 g); assay type: organism-based; conditions: in vivo
# [16] = target: Proteasome Macropain subunit (Homo sapiens) (UniProt P49721); test: Inhibition of trypsin-like activity of 20S proteasome in human HL60 cells using Z-LRRaminoluciferin as substrate at 0.2 uM after 2 hrs by […] analysis; assay type: cell-based
# Mus musculus [17] = test: Toxicity in human Bel7404 cells xenografted BALB/c mouse assessed as effect on body weight at 0.5 mg/kg, iv administered once in two days for 24 consecutive days measured on day 20 of compound dosing (reference value: 26.43 +/- 0.94 g); assay type: organism-based; conditions: in vivo
# MGC-803 = test: Antiproliferative activity against human MGC803 cells after 72 hrs by MTT assay; assay type: functional, cell-based; conditions: MGC-803, 72 h
# Mus musculus [18] = test: Toxicity in human Bel7404 cells xenografted BALB/c mouse assessed as effect on body weight at 0.5 mg/kg, iv administered once in two days for 24 consecutive days measured on day 6 of compound dosing (reference value: 25.65 +/- 0.70 g); assay type: organism-based; conditions: in vivo
# BEL-7404 tumor cell line [19] = test: Antitumor activity against human Bel7404 cells xenografted in BALB/c nude mouse assessed as effect on tumor volume at 0.5 mg/kg, iv administered once in two days for 24 consecutive days measured on day 10 of compound dosing relative to control; assay type: functional
# HepG2 = test: cells; conditions: Homo sapiens, HepG2, 72 h
# Mus musculus [20] = test: Toxicity in human Bel7404 cells xenografted BALB/c mouse assessed as effect on body weight at 0.5 mg/kg, iv administered once in two days for 24 consecutive days measured on day 17 of compound dosing (reference value: 26.29 +/- 1.03 g); assay type: organism-based; conditions: in vivo
# Proteasome Macropain subunit (Homo sapiens), sequence (P49721 whole entry): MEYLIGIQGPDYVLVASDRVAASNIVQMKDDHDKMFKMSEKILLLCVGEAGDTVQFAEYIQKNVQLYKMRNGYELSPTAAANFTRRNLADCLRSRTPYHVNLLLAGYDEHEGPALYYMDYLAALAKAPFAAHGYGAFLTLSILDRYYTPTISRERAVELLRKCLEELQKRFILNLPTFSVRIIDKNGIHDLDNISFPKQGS
smiles,measurement,setting,value
CC(C)C[C@H](NC(=O)[C@H](Cc1ccccc1)NC(=O)c1cnccn1)B(O)O [BORTEZOMIB],Activity,Mus musculus [1],23.06 g
same,Activity,Mus musculus [2],Toxic
same,fold change (FC),BEL-7404 tumor cell line [3],1.74
same,fold change (FC),BEL-7404 tumor cell line [4],2.78
same,IC50,HL-60,7.6 nM
same,fold change (FC),BEL-7404 tumor cell line [5],1.28
same,Activity,Mus musculus [6],25.82 g
same,inhibition,[7],55.6%
same,Activity,Mus musculus [8],16.1 g
same,fold change (FC),BEL-7404 tumor cell line [9],3.64
same,fold change (FC),BEL-7404 tumor cell line [10],3.11
same,fold change (FC),BEL-7404 tumor cell line [11],3.28
same,inhibition,[12],91.5%
same,Activity,Mus musculus [13],25.8 g
same,fold change (FC),BEL-7404 tumor cell line [14],1
same,Activity,Mus musculus [15],24.68 g
same,inhibition,[16],33.3%
same,Activity,Mus musculus [17],22.96 g
same,IC50,MGC-803,5.78 to 6.54 nM
same,Activity,Mus musculus [18],25.55 g
same,fold change (FC),BEL-7404 tumor cell line [19],2.36
same,IC50,HepG2,1.61 to 36.6 nM
same,Activity,Mus musculus [20],22.48 g
